The target of one assay is T1, IRAK4 (Homo sapiens, UniProt Q9NWZ3).
T1 sequence (Q9NWZ3 1-460): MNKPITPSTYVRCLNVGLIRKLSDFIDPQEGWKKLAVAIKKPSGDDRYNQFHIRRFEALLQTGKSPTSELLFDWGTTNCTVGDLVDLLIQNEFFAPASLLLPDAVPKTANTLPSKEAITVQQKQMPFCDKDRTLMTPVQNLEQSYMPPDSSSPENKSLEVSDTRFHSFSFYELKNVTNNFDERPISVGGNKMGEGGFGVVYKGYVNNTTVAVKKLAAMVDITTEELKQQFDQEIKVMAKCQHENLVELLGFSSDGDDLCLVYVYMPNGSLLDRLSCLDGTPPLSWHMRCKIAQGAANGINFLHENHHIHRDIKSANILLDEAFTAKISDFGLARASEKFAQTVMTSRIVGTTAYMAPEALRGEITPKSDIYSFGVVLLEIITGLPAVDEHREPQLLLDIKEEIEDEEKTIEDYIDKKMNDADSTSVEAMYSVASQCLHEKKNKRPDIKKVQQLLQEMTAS
The assay can be described thus: NanoBRET target engagement assay in HEK-293 cells, IRAK4. The format is cell-based. The note with it: live HEK-293 cells, 1 h. An excerpt:
The NanoBRET assay measures kinase engagement in real time in the context of the intact cell. Unlike the previously described biochemical kinase assay methodology, the NanoBRET assay measures the binding and activity characteristics under equilibrium conditions using full-length kinases in the presence of cellular concentrations of ATP in live, uncompromised cells. As such, the assay provides a more relevant assessment of kinase potency and selectivity that would be expected to be observed in the native cellular environment, where potency is often considerably lower than that observed in the isolated biochemical assays (Vasta, J. D. et al., (2018) Cell Chem. Biol. 25, 206-214). The assay uses a Kinase-NanoLuc® fusion vector expressing a kinase protein to which a luciferase tag has been added, a cell-permeant fluorescent NanoBRET™ tracer, a NanoLuc® substrate, and an extracellular NanoLuc® inhibitor. Upon expression of the luciferase-tagged kinase, cells will produce a strong BRET signal only in the presence of the NanoBRET™ tracer. The extracellular NanoLuc® inhibitor ensures that the BRET signal observed emanates only from live cells. Because the BRET signal has tight distance constraints, addition of the test compound will decrease the BRET signal if the compound competes with the NanoBRET™ tracer for binding to the kinase domain. Under the appropriate tracer conditions established by the manufacturer, quantitative intracellular affinity and relative potency can then be determined using Mass Action model equations.
HEK-293 cells were purchased from ATCC. FuGENEHD Transfection Reagent, Kinase-NanoLucfusion plasmids, Transfection Carrier DNA, NanoBRETTracers and dilution buffer, NanoBRETNano-Glo Substrate, Extracellular NanoLucInhibitor were obtained from Promega.
Assays were conducted following Promega assay protocol with some modifications. HEK-293 Cells were transiently transfected with Kinase-NanoLucFusion Vector DNA by FuGENEHD Transfection Reagent. Testing compounds were delivered into 384 well assay plate by Echo 550 (LabcyteInc, Sunnyvale, CA). Transfected cells were harvested and mixed with NanoBRETTracer Reagent and dispensed into 384 well plates and incubated at 37 °C in 5% CO2 cell culture incubator for 1 hour. The NanoBRETNano-Glo Substrate plus Extracellular NanoLucInhibitor Solution were added into the wells of the assay plate and incubated for 2-3 minutes at room temperature. The donor emission wavelength (460 nm) and acceptor emission wavelength (600 nm) were measured in the En Visionplate reader. The BRET Ratios were calculated.
BRET Ratio=[(Acceptor sample÷Donor sample)−(Acceptor no-tracer control÷Donor no-tracer control)].
The IC50 values of compounds were calculated with Prism GraphPad program.
• 1). Cultivate HEK-293 cells (70-80% confluence) appropriately prior to assay. Trypsinize and collect HEK-293 cells. • 2). Prepare lipid:DNA complexes as follows: • a. Prepare a 10 μg/ml solution of DNA in Opti-MEM without serum that consists of the following ratios of carrier DNA and DNA encoding NanoLuc® fusion. 9.0 μg/mL of Transfection Carrier DNA, 1.0 μg/mL of NanoLuc fusion vector DNA and 1 mL of Opti-MEM without phenol red. Mix thoroughly. • b. Add 30 μl of FuGENE HD Transfection Reagent into each milliliter of DNA mixture to form lipid:DNA complex. • c. Mix by inversion 10 times. • d. Incubate at ambient temperature for 20 minutes to allow complexes to form. • 3). In a sterile, conical tube, mix 1 part of lipid:DNA complex with 20 parts of HEK-293 cells in suspension. Mix gently by inversion 5 times. • 4). Dispense cells+lipid:DNA complex into a sterile tissue culture dish and incubate for 22-24 hours.
Each test compound is delivered from the compound source plate to the wells of 384-well white NBS plate by Echo 550.
3. Preparation of Cells with NanoBRET™ Tracer Reagent • 1). Remove medium from dish with transfected HEK-293 cells via aspiration, trypsinize and allow cells to dissociate from the dish. • 2). […]

In another assay the test system is MOLM14 F691L cells. The assay can be described thus: MOLM14 F691L cell viability (Cell Titer Glo). The assay is classed as cell-based. The note with it: Homo sapiens. How it is done:
Both cell lines have activated FLT3 receptors, each of which carry additional resistance mutations in the kinase domain (D835Y and F691L, respectively).
MOLM14 D835Y and MOLM14 F691L cells were grown in RPMI-1640 media supplemented with 20% fetal bovine serum (FBS). For viability/cytotoxicity assessments, cells were seeded into 1536-well white polystyrene tissue culture-treated Greiner plates using a Multidrop Combi dispenser (ThermoFisher), in final volume 5 μL of growth media per well, at a density of 1000 cells per well. After cell addition, 23 nL of test compound were transferred into individual wells (22 doses tested for each test compound, with a 1:2 dilution series starting at 10 μM) via a 1536 pin-tool. Bortezomib (final concentration 2.3 μM) was used as a positive control for cell cytotoxicity. Plates were incubated for 48 hours at standard incubator conditions covered by a stainless steel gasketed lid to prevent evaporation. 48 hours post compound addition, 3 μL of Cell Titer Glo (Promega) were added to each well and plates were incubated at room temperature for 15 minutes with the stainless-steel lid in place. Luminescence readings were taken using a Viewlux imager (PerkinElmer) with a 2 second exposure time per plate.
A general note: ATP-based viability assays read luminescence as a measure of living cells.

Broadly, the IC50 is the concentration that gives 50% inhibition. Read a high IC50 as weaker potency in that assay. As for `COc1cn2ncc(-c3ccc(F)c(N[C@H]4CNCC[C@@H]4F)n3)c2nc1C1CC1` [Compound 6, 6-(5-cyclopropyl-6-methoxypyrazolo[1,5-a]pyrimidin-3-yl)-3-fluoro-N-((3S,4S)-4-fluoropiperidin-3-yl)pyridin-2-amine], the IC50 on IRAK4 (Table 14) was below 0.5 nM; in the assay on MOLM14 F691L cells (MOLM-14, Table 16, 48 h), 71 nM.

Consider `COc1cn2ncc(-c3ccnc(N[C@H]4CNCC[C@@H]4F)n3)c2nc1C(C)(C)O` [Compound 3a, 2-(3-(2-(((3S,4S)-4-fluoropiperidin-3-yl)amino)pyrimidin-4-yl)-6-methoxypyrazolo[1,5-a]pyrimidin-5-yl)propan-2-ol], for which the IC50 against IRAK4 (Table 20) was determined as 8 nM; in the assay with MOLM14 F691L cells (MOLM-14, Table 22, 48 h), 565 nM.

Regarding `COc1cn2ncc(-c3nc(N[C@@H]4CCCNC4)c(F)cc3F)c2nc1C(C)(C)O` [Compound 11, (R)-2-(3-(3,5-difluoro-6-(piperidin-3-ylamino)pyridin-2-yl)-6-methoxypyrazolo[1,5-a]pyrimidin-5-yl)propan-2-ol], the IC50 on IRAK4 (Table 14) is below 0.5 nM; in the assay on MOLM14 F691L cells (MOLM-14, Table 16, 48 h), 142 nM.

For the origin of these results see patent US20260374773A1, “MULTI-CYCLIC IRAK AND FLT3 INHIBITING COMPOUNDS AND USES THEREOF” (CHILDREN'S HOSPITAL MEDICAL CENTER, priority 2022, published 2026).
